Laboratory results from ChEMBL document CHEMBL3507680, “University of Dundee, Gates Library screen for HepG2 cell viability”.

Experiment: Human HepG2 cell viability assay in 384 well format
Type: toxicity, cell-based
Set-up: dose 125 nL, time 70.5 hour; cytotoxicity at 70.5 h: concentration not given beside the values
Details: HepG2 cells, read-out: Inhibition

Compound | cytotoxicity at 70.5 h [%]
O=C(Cc1ccc(F)cc1)N1CCn2cc(Cn3cncn3)nc2C1 | -9.64
COc1cccc(CNC(=O)c2nc3c(s2)CCN(C(C)=O)CC3)c1 | -11
Cn1cc(C2COC3(CCN(C(=O)c4ccsc4)CC3)C2)cn1 (stereo unspecified) | -15.9
CS(=O)(=O)NCc1nnc2n1CCN(Cc1cccnc1)C2 | 18.3
Cc1nc(C(=O)N2CC[C@@]3(C[C@@H](NS(C)(=O)=O)CCO3)C2)cs1 | -5.85
CN1C[C@H]2C[C@H](C(=O)Nc3cccnc3)[C@@H](C1)O2 | -11.1
c1cncc(CN2CCCC3(COCCN(c4cncnc4)C3)C2)c1 (stereo unspecified) | -6.01
O=C(c1ccncc1)N1C[C@@H]2OCCN(CCN3CCCC3)[C@@H]2C1 | -4.2
Cc1ncoc1C(=O)N1CC[C@@]2(C[C@H](NS(C)(=O)=O)CCO2)C1 | -7.59
Cc1cc(C(=O)N2CC[C@@]3(C[C@@H](NS(C)(=O)=O)CCO3)C2)no1 | -4.95
O=S(=O)(c1ccccc1)N1CCC2(CCCN2Cc2cccc(F)c2)C1 (stereo unspecified) | 6.89
CC1=N[C@@]2(CC[C@@H]3CN(S(=O)(=O)CC(C)C)C[C@@H]32)C(=O)N1CC1CC1 | 8.18
CS(=O)(=O)N[C@@H]1CCN(Cc2ccncc2)[C@H]1Cc1cccnc1 | -12.8
CS(=O)(=O)N[C@@H]1CCN(Cc2cccs2)[C@H]1Cc1cccnc1 | -18.1
COCC(=O)N1CC[C@H]2C[C@H](c3nc(C)no3)O[C@@H]2C1 | -7.44
Cn1cc2c(n1)C(COCC1CC1)CN(Cc1ccsc1)C2 (stereo unspecified) | -3.4
CC(C)N(C)Cc1cnc2n1CCN(C(=O)c1cccs1)C2 | -15.9
Cc1nc(CN2Cc3cn(C)nc3C(COCC3CC3)C2)cs1 (stereo unspecified) | 14.1
CN1CCN(Cc2cnc3n2CCN(C(=O)N2CCCC2)C3)CC1 | -14.4
CCCNC(=O)c1nc2c(o1)CN(C(C)=O)C2 | -9.4
Cn1ccc(C(=O)NC2CCC23CCN(C(=O)c2ccnnc2)CC3)c1 (stereo unspecified) | 27.1

Compound | cytotoxicity at 70.5 h [%]
Cc1noc(C)c1C(=O)N1CC[C@]2(C[C@@H](OCc3cccnc3)CO2)C1 | -9.24
Cn1cc(CN2CC[C@H](O)[C@@H]2Cc2ccccc2)cn1 | -0.0718
Cc1ccc(CN2CC[C@@H](O)[C@@H]2Cc2cnn(C)c2)o1 | -10.4
Cc1cc(C(=O)N2C[C@@H]3OCCN(CCN4CCCC4)[C@@H]3C2)c(C)o1 | -7.77
CCN1C[C@H]2C[C@H](C(=O)Nc3ccccc3)[C@@H](C1)O2 | 16.4
O=C(c1cc[nH]n1)N1CCc2onc(COc3cccnc3)c2C1 | -6.72
CC(C)(C)CN1CCCC12CCN(S(=O)(=O)c1ccccc1)C2 (stereo unspecified) | -2.83
CN1C(=O)C2(CCN(CC3CCC3)C2)c2ccccc21 (stereo unspecified) | 9.83
O=C(NCc1ccccc1)c1nc2c(o1)CN(C(=O)c1cccnc1)C2 | -9
Cn1ccnc1CN1CC[C@@H](NS(C)(=O)=O)[C@@H]1Cc1ccccc1 | -10.6
CCC(CC)NC(=O)c1ncn2c1CN(CC)S(=O)(=O)c1ccccc1-2 | -12.8
CC(C)CN1C(=O)C2(CCN(CC3CCOCC3)C2)c2ccccc21 (stereo unspecified) | -3.07
CC(C)CS(=O)(=O)N1CCC2(CN(c3cccc(F)c3)C(=O)CN2C)C1 (stereo unspecified) | 19.6
CC(C)OCc1ncn2c1CN(CC1CC1)CCC2 | 20.2
CCOc1ncnc2c1CCN(Cc1csc(C)n1)CC2 | 18.8
CC(C)NC(=O)[C@H]1C[C@H]2OCC[C@H]2N(Cc2ccc3ccccc3n2)C1 | -0.387
O=C(c1ccsc1)N1C[C@@H]2OCCN(CCN3CCCC3)[C@@H]2C1 | 16.6
Cn1cc(CN2CC[C@@H](NS(C)(=O)=O)[C@@H]2Cc2cccnc2)cn1 | -12.3
COCC(=O)N1CCn2c(CN3CCN(C)CC3)cnc2C1 | -3.31
Cc1nc(CN2CCc3ncnc(-c4ccncc4)c3CC2)cs1 | 20
